Measurements as given in the kinase profiling compilation of Christmann-Franck et al. (2016).

Assays:
Assay in all cases: radiometric filter-binding kinase assay
[1] = tested on: AKT1 (human), P31749 [S473D]
[2] = tested on: AKT2 (human), P31751 [S474D]
[3] = biological target: AURKA (human) (UniProt O14965)
[4] = biological target: CDK2 CCNA2 (human) (UniProt P20248+P24941)
[5] = biological target: CaMK1 (human) (UniProt Q14012)
[6] = biological target: DYRK1A (human) (UniProt Q13627)
[7] = biological target: EPHA4 (human) (UniProt P54764)
[8] = biological target: EPHB4 (human) (UniProt P54760)
[9] = biological target: FGFR1 (human) (UniProt P11362)
[10] = biological target: FLT1 (human) (UniProt P17948)
[11] = biological target: GSK3B (human) (UniProt P49841)
[12] = biological target: IGF1R (human) (UniProt P08069)
[13] = biological target: INSRR (human) (UniProt P14616)
[14] = tested on: LCK (mouse); details: accession and sequence are those of the human protein
[15] = biological target: MAP2K1 (human) (UniProt Q02750)
Sequence of MAP2K1 (human) (Q02750 whole entry, looked up): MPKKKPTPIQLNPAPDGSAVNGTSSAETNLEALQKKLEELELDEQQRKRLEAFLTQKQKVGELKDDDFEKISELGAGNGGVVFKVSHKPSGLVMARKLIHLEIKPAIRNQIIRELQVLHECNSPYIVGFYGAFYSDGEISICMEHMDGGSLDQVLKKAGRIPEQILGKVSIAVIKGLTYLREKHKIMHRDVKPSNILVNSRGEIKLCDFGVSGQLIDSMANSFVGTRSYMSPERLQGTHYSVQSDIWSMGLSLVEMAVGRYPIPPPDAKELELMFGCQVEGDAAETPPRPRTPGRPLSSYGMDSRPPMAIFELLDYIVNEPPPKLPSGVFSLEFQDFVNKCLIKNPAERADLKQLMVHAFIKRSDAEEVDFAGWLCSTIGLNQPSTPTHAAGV

[16] = biological target: MAP3K1 (human) (UniProt Q13233)
[17] = biological target: MAP3K9 (human) (UniProt P80192)
[18] = biological target: MAPK1 (human) (UniProt P28482)
[19] = biological target: MAPK15 (human) (UniProt Q8TD08)
[20] = biological target: MAPKAPK3 (human) (UniProt Q16644)
Sequence of MAPKAPK3 (human) (Q16644 whole entry, looked up): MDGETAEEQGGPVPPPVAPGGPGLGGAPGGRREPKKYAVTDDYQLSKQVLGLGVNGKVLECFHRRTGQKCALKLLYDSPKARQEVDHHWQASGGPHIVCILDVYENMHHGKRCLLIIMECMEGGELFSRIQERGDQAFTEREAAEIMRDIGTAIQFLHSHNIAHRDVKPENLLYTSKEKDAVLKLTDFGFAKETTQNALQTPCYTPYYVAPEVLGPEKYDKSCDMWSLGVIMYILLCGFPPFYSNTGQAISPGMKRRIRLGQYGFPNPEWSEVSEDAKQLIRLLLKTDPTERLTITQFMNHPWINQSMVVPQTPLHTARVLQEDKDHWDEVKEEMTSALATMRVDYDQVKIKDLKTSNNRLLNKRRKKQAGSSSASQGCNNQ

[21] = biological target: MAPKAPK5 (human) (UniProt Q8IW41)
[22] = biological target: MELK (human) (UniProt Q14680)
Sequence of MELK (human) (Q14680 whole entry, looked up): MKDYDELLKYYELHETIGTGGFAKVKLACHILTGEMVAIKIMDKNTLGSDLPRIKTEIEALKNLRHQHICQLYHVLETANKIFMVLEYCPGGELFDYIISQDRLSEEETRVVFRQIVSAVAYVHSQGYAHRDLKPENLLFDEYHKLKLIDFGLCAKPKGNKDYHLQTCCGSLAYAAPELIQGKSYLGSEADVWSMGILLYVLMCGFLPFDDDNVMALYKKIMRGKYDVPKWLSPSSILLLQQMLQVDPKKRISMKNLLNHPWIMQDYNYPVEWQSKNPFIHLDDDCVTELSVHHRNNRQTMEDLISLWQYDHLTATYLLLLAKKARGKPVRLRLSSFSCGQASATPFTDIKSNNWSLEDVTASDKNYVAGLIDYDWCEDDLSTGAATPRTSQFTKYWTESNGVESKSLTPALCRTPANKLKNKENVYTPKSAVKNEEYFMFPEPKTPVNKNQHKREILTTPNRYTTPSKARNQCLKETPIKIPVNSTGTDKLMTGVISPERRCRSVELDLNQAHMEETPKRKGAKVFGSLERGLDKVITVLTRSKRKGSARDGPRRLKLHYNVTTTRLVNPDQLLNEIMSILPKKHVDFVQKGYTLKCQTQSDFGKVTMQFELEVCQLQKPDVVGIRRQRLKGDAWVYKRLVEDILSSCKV

[23] = biological target: MINK1 (human) (UniProt Q8N4C8)
Sequence of MINK1 (human) (Q8N4C8 whole entry, looked up): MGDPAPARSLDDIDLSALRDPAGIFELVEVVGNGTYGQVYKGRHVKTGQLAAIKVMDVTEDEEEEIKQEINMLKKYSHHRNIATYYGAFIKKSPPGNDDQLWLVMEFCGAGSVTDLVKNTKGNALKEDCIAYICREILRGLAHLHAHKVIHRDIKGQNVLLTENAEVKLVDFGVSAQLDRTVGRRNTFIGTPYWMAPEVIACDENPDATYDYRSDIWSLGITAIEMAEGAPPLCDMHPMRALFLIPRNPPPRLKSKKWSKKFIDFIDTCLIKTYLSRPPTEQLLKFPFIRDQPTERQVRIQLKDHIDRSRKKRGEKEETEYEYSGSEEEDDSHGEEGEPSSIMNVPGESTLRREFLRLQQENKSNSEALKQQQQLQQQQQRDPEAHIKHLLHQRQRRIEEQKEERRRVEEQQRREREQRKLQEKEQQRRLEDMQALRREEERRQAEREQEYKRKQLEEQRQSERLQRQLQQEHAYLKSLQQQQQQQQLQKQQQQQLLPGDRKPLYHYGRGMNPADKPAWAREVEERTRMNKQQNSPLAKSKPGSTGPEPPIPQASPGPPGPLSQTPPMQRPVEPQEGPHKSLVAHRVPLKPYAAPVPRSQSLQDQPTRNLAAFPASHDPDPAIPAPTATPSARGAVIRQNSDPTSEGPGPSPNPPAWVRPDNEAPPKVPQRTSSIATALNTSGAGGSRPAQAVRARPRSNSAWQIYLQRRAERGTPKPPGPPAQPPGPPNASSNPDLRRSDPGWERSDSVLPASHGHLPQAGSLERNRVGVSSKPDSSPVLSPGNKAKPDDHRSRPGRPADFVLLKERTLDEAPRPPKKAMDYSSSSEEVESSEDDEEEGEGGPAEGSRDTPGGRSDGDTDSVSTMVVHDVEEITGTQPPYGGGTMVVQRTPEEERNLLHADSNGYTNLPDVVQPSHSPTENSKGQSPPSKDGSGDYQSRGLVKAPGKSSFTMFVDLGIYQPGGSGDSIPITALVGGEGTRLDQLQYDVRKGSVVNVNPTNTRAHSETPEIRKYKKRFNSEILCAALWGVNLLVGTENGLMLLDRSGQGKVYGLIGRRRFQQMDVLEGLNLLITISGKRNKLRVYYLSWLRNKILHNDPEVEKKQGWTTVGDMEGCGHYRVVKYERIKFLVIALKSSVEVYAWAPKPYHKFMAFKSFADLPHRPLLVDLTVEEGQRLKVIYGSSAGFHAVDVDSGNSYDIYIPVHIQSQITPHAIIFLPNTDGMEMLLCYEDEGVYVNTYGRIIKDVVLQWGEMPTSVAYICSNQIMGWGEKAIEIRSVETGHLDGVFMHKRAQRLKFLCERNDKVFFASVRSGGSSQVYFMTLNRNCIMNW

[24] = biological target: NEK2 (human) (UniProt P51955)
[25] = biological target: NEK6 (human) (UniProt Q9HC98)
[26] = tested on: PAK2 (human), Q13177 [T402E]
Sequence of PAK2 (human), Q13177 [T402E] (Q13177 whole entry T402E, looked up): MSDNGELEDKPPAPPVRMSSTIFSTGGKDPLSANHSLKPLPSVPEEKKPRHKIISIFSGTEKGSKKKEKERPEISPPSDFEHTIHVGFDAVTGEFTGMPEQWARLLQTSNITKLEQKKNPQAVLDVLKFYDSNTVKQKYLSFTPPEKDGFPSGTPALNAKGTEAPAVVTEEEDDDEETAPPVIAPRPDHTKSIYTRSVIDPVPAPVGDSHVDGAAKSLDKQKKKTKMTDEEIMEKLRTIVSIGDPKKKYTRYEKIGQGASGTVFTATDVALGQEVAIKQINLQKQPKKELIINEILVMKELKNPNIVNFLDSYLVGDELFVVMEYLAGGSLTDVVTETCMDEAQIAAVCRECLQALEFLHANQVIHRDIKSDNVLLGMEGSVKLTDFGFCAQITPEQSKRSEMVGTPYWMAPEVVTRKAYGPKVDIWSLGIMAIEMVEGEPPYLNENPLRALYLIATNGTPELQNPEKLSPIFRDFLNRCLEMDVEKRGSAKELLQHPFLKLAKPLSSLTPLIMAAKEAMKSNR

[27] = biological target: PAK4 (human) (UniProt O96013)
[28] = biological target: PAK7 (human) (UniProt Q9P286)
[29] = biological target: PIM1 (human) (UniProt P11309)
[30] = biological target: PLK1 (human) (UniProt P53350)
Sequence of PLK1 (human) (P53350 whole entry, looked up): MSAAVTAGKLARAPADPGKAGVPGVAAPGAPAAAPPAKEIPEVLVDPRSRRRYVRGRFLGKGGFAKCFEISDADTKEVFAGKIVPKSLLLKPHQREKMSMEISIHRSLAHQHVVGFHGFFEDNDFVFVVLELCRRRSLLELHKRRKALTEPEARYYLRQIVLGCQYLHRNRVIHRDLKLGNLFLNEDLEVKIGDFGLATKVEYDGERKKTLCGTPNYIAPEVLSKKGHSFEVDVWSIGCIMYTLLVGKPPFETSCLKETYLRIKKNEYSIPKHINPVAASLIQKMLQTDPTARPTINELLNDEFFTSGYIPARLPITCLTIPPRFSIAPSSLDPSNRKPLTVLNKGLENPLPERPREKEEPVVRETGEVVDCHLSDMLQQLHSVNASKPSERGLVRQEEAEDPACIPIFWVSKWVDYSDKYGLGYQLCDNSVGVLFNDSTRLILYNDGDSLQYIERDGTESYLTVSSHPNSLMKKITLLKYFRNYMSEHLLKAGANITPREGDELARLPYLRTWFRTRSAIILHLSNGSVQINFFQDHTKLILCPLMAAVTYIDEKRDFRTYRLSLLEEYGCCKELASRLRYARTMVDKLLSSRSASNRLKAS

[31] = tested on: ROCK2 (rat); details: accession and sequence are those of the human protein
[32] = biological target: STK11 CAB39 STRADA (human) (UniProt Q9Y376+Q7RTN6+Q15831)
[33] = biological target: STK3 (human) (UniProt Q13188)
[34] = biological target: TBK1 (human) (UniProt Q9UHD2)
[35] = biological target: YES1 (human) (UniProt P07947)

Sequence of AKT1 (human), P31749 [S473D] (P31749 whole entry S473D, looked up): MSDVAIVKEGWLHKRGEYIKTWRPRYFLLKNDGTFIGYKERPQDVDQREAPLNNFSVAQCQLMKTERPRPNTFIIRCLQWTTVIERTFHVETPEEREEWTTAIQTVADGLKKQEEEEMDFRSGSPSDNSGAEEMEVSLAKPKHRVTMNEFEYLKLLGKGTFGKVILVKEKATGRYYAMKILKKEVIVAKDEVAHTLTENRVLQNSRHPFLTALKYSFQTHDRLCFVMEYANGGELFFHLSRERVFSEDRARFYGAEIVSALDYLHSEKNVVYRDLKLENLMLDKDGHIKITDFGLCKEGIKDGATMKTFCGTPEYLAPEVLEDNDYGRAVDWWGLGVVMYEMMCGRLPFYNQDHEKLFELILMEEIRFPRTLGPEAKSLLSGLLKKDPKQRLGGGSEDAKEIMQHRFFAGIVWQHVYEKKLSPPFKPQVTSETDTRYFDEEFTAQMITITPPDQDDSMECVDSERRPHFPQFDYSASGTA
Sequence of CaMK1 (human) (Q14012 whole entry, looked up): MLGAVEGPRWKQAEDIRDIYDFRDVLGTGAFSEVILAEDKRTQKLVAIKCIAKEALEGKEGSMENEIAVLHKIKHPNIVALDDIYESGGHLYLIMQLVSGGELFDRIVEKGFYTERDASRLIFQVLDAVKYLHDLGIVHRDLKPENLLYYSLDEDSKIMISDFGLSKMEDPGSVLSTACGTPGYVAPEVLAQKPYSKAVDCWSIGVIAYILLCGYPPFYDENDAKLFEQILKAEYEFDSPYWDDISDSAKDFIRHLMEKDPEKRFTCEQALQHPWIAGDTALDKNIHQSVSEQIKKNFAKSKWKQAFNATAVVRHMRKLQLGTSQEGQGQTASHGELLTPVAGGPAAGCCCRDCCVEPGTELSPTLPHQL

SMILES: Cc1nc(N)sc1-c1csc(Nc2cccnc2)n1
- residual activity ([1]; compound 10.0 µM): 91%
- residual activity ([2]; compound 10.0 µM): 3%
- residual activity ([2]; compound 100.0 µM): 7%
- residual activity ([3]; compound 10.0 µM): 54%
- residual activity ([3]; compound 100.0 µM): 2%
- residual activity ([4]; compound 10.0 µM): 63%
- residual activity ([5]; compound 10.0 µM): 20%
- residual activity ([5]; compound 100.0 µM): 5%
- residual activity ([6]; compound 10.0 µM): 33%
- residual activity ([6]; compound 100.0 µM): 11%
- residual activity ([7]; compound 10.0 µM): 106%
- residual activity ([8]; compound 10.0 µM): 97%
- residual activity ([9]; compound 10.0 µM): 47%
- residual activity ([9]; compound 100.0 µM): 23%
- residual activity ([10]; compound 10.0 µM): 45%
- residual activity ([10]; compound 100.0 µM): 6%
- residual activity ([11]; compound 10.0 µM): 48%
- residual activity ([11]; compound 100.0 µM): 19%
- residual activity ([12]; compound 10.0 µM): 70%
- residual activity ([13]; compound 10.0 µM): 40%
- residual activity ([13]; compound 100.0 µM): 22%
- residual activity ([14]; compound 10.0 µM): 94%
- residual activity ([15]; compound 10.0 µM): 80%
- residual activity ([16]; compound 10.0 µM): 90%
- residual activity ([17]; compound 10.0 µM): 95%
- residual activity ([17]; compound 100.0 µM): 9%
- residual activity ([18]; compound 10.0 µM): 93%
- residual activity ([18]; compound 100.0 µM): 95%
- residual activity ([19]; compound 10.0 µM): 43%
- residual activity ([20]; compound 10.0 µM): 23%
- residual activity ([20]; compound 100.0 µM): 5%
- residual activity ([21]; compound 10.0 µM): 94%
- residual activity ([22]; compound 10.0 µM): 73%
- residual activity ([23]; compound 10.0 µM): 35%
- residual activity ([23]; compound 100.0 µM): 3%
- residual activity ([24]; compound 10.0 µM): 42%
- residual activity ([24]; compound 100.0 µM): 14%
- residual activity ([25]; compound 10.0 µM): 73%
- residual activity ([26]; compound 10.0 µM): 89%
- residual activity ([27]; compound 10.0 µM): 74%
- residual activity ([28]; compound 10.0 µM): 103%
- residual activity ([29]; compound 10.0 µM): 22%
- residual activity ([29]; compound 100.0 µM): 6%
- residual activity ([30]; compound 10.0 µM): 35%
- residual activity ([30]; compound 100.0 µM): 22%
- residual activity ([31]; compound 10.0 µM): 80%
- residual activity ([32]; compound 10.0 µM): 64%
- residual activity ([33]; compound 10.0 µM): 76%
- residual activity ([34]; compound 10.0 µM): 75%
- residual activity ([35]; compound 10.0 µM): 77%

SMILES: O=C1c2ccccc2-c2n[nH]c3cccc1c23
- residual activity ([1]; compound 1.0 µM): 40%
- residual activity ([1]; compound 10.0 µM): 10%
- residual activity ([2]; compound 1.0 µM): 104%
- residual activity ([2]; compound 10.0 µM): 98%
- residual activity ([3]; compound 1.0 µM): 40%
- residual activity ([3]; compound 10.0 µM): 6%
- residual activity ([4]; compound 1.0 µM): 50%
- residual activity ([4]; compound 10.0 µM): 14%
- residual activity ([5]; compound 1.0 µM): 70%
- residual activity ([5]; compound 10.0 µM): 31%
- residual activity ([6]; compound 1.0 µM): 35%
- residual activity ([6]; compound 10.0 µM): 7%
- residual activity ([7]; compound 1.0 µM): 84%
- residual activity ([7]; compound 10.0 µM): 66%
- residual activity ([8]; compound 1.0 µM): 113%
- residual activity ([8]; compound 10.0 µM): 78%
- residual activity ([9]; compound 1.0 µM): 52%
- residual activity ([9]; compound 10.0 µM): 22%
- residual activity ([10]; compound 1.0 µM): 29%
- residual activity ([10]; compound 10.0 µM): 14%
- residual activity ([11]; compound 1.0 µM): 87%
- residual activity ([11]; compound 10.0 µM): 51%
- residual activity ([12]; compound 1.0 µM): 55%
- residual activity ([12]; compound 10.0 µM): 11%
- residual activity ([13]; compound 1.0 µM): 55%
- residual activity ([13]; compound 10.0 µM): 28%
- residual activity ([14]; compound 1.0 µM): 95%
- residual activity ([14]; compound 10.0 µM): 90%
- residual activity ([15]; compound 1.0 µM): 67%
- residual activity ([15]; compound 10.0 µM): 26%
- residual activity ([16]; compound 1.0 µM): 73%
- residual activity ([16]; compound 10.0 µM): 28%
- residual activity ([17]; compound 1.0 µM): 11%
- residual activity ([17]; compound 10.0 µM): 6%
- residual activity ([18]; compound 1.0 µM): 83%
- residual activity ([18]; compound 10.0 µM): 62%
- residual activity ([19]; compound 1.0 µM): 39%
- residual activity ([19]; compound 10.0 µM): 6%
- residual activity ([20]; compound 1.0 µM): 113%
- residual activity ([20]; compound 10.0 µM): 66%
- residual activity ([21]; compound 1.0 µM): 78%
- residual activity ([21]; compound 10.0 µM): 39%
- residual activity ([22]; compound 1.0 µM): 77%
- residual activity ([22]; compound 10.0 µM): 109%
- residual activity ([23]; compound 1.0 µM): 37%
- residual activity ([23]; compound 10.0 µM): 16%
- residual activity ([24]; compound 1.0 µM): 129%
- residual activity ([24]; compound 10.0 µM): 95%
- residual activity ([25]; compound 1.0 µM): 95%
- residual activity ([25]; compound 10.0 µM): 66%
- residual activity ([26]; compound 1.0 µM): 92%
- residual activity ([26]; compound 10.0 µM): 68%
- residual activity ([27]; compound 1.0 µM): 80%
- residual activity ([27]; compound 10.0 µM): 25%
- residual activity ([28]; compound 1.0 µM): 80%
- residual activity ([28]; compound 10.0 µM): 41%
- residual activity ([29]; compound 1.0 µM): 43%
- residual activity ([29]; compound 10.0 µM): 15%
- residual activity ([30]; compound 1.0 µM): 113%
- residual activity ([30]; compound 10.0 µM): 110%
- residual activity ([31]; compound 1.0 µM): 75%
- residual activity ([31]; compound 10.0 µM): 32%
- residual activity ([32]; compound 1.0 µM): 40%
- residual activity ([32]; compound 10.0 µM): 18%
- residual activity ([33]; compound 1.0 µM): 40%
- residual activity ([33]; compound 10.0 µM): 29%
- residual activity ([34]; compound 1.0 µM): 76%
- residual activity ([34]; compound 10.0 µM): 41%
- residual activity ([35]; compound 1.0 µM): 71%
- residual activity ([35]; compound 10.0 µM): 33%
